In ChEMBL document CHEMBL1143522, “Antimalarial benzo[c]phenanthridines” (Bioorg Med Chem Lett, 2005):

How the values were obtained:
Plasmodium falciparum [1] = assay: […] against Plasmodium falciparum strains K39 and V1/S; type: functional
Plasmodium falciparum [2] = assay: In vitro inhibitory concentration against chloroquine-sensitive Plasmodium falciparum K39; type: functional, organism-based
Plasmodium falciparum [3] = assay: In vitro inhibitory concentration against chloroquine-resistant Plasmodium falciparum V1/S; type: functional, organism-based
Plasmodium falciparum [4] = assay: In vitro inhibition against chloroquine-sensitive Plasmodium falciparum K39; Range 0.1-0.4 uM; type: functional, organism-based
Plasmodium falciparum [5] = assay: In vitro inhibition against chloroquine-resistant Plasmodium falciparum V1/S; Range 0.1-0.4 uM; type: functional, organism-based
[6] = In vitro toxicity against B82 fibroblast cells; type: cell-based; settings: mouse, read-out: LD50 (the source's name)

With `CCOc1cc2c3cc(OC)c(OC)cc3c[n+](C)c2c2cc(OC)c(OC)cc12.CS(=O)(=O)[O-]` as the compound, how does the Ratio (Plasmodium falciparum [1]) read?
Its Ratio is 1.

What about the IC50 (Plasmodium falciparum [2]) of the same compound?
The IC50 was 260 nM.

What about the IC50 (Plasmodium falciparum [3]) of the same compound?
Its IC50 is 260 nM.

With `COc1cc2c[n+](C)c3c4cc5c(cc4ccc3c2cc1OC)OCO5` [NITIDINE CHLORIDE] as the compound, how does the IC50 (Plasmodium falciparum [4]) read?
Its IC50 is 400 nM.

What about the IC50 (Plasmodium falciparum [5]) of the same compound?
Its IC50 is 400 nM.

Which Ratio (Plasmodium falciparum [1]) does the source give for `COc1cc2c[n+](C)c3c4cc(OC)c(OC)cc4ccc3c2cc1OC.CS(=O)(=O)[O-]` here?
Its Ratio is 4.2.

And the IC50 (Plasmodium falciparum [2])?
Its IC50 is 70 nM.

And the IC50 (Plasmodium falciparum [3])?
The IC50 was 300 nM.

With `COc1cc2c[n+](C)c3c4cc(OC)c(OC)cc4c4occc4c3c2cc1OC.CS(=O)(=O)[O-]` as the compound, how does the Ratio (Plasmodium falciparum [1]) read?
Its Ratio is 11.3.

What about the IC50 (Plasmodium falciparum [2]) of the same compound?
The IC50 was 9 nM.

What about the IC50 (Plasmodium falciparum [3]) of the same compound?
The IC50 was 110 nM.

What does the source list for `CCOc1cc2ccc3c4cc(OC)c(OC)cc4c[n+](C)c3c2cc1OC.CS(=O)(=O)[O-]`?
Ratio (Plasmodium falciparum [1]): 0.9; IC50 (Plasmodium falciparum [2]): 800 nM; IC50 (Plasmodium falciparum [3]): 740 nM

What does the source list for `COc1cc2c[n+](C)c3c4cc(OC)c(OC)cc4c(OCC4OCC(Br)([N+](=O)[O-])CO4)cc3c2cc1OC.CS(=O)(=O)[O-]` (stereo not drawn)?
Ratio (Plasmodium falciparum [1]): 1.9; IC50 (Plasmodium falciparum [2]): 1000 nM; IC50 (Plasmodium falciparum [3]): 1840 nM

Which Ratio (Plasmodium falciparum [1]) does the source give for `COc1cc2ccc3c4cc(OC)c(SC)cc4c[n+](C)c3c2cc1OC.CS(=O)(=O)[O-]` here?
Its Ratio is 4.7.

What about the IC50 (Plasmodium falciparum [2]) of the same compound?
Its IC50 is 190 nM.

What about the IC50 (Plasmodium falciparum [3]) of the same compound?
The IC50 was 900 nM.

For `CC[n+]1cc2cc(OC)c(OC)cc2c2ccc3cc(OC)c(OC)cc3c21.[I-]`, which Ratio (Plasmodium falciparum [1]) is on record?
Its Ratio is 1.3.

What about the IC50 (Plasmodium falciparum [2]) of the same compound?
Its IC50 is 90 nM.

What about the IC50 (Plasmodium falciparum [3]) of the same compound?
The IC50 was 120 nM.

What does the source list for `COc1cc2c(ccc3c4cc(OC)c(OC)cc4c[n+](C)c23)cc1O.CS(=O)(=O)[O-]`?
Ratio (Plasmodium falciparum [1]): 0.8; IC50 (Plasmodium falciparum [2]): 2300 nM; IC50 (Plasmodium falciparum [3]): 1800 nM

With `CCOc1cc2c3cc(OC)c(OC)cc3c[n+](C)c2c2cc(OC)c(O)cc12.CS(=O)(=O)[O-]` as the compound, how does the Ratio (Plasmodium falciparum [1]) read?
Its Ratio is 1.

What about the IC50 (Plasmodium falciparum [2]) of the same compound?
Its IC50 is 120 nM.

And the IC50 (Plasmodium falciparum [3])?
Its IC50 is 120 nM.

What does the source list for `CCOc1cc2c3cc(OC)c(OC)cc3c[n+](CC)c2c2cc(OC)c(OC)cc12.[I-]`?
Ratio (Plasmodium falciparum [1]): 1.4; IC50 (Plasmodium falciparum [2]): 40 nM; IC50 (Plasmodium falciparum [3]): 50 nM; CC50 [6]: 3.2 µg/mL
